Reference: US20250339443A1, “METHOD FOR TREATING OR PREVENTING CALCIUM RELEASE-ACTIVATED CALCIUM CHANNEL OR DISCOIDIN DOMAIN RECEPTOR 2 RELATED DISORDERS OR CONDITIONS” (LumiSTAR Biotechnology, Inc., priority 2023, published 2025)
“Also recorded” adds a separate entry of the source.

Tests used:
[1] = test system: CCL-226 cells; assay: TGF-β1-induced pericyte-to-myofibroblast activation (Western blot); type: cell-based, mouse; conditions: CCL-226, 10 μM, 24 hours
Procedure: FIG. 2A, FIG. 2B, FIG. 2C, FIG. 2D, FIG. 2E, FIG. 2F, FIG. 2G-1, and FIG. 2G-2 display how WRG-28 and Av suppress TGF-β1-induced fibroblasts activation and the differentiation of pericytes into myofibroblasts. […] Each bar represents the mean #SEM. […] The protein levels of collagen 1a1 and α-SMA were assessed using Western blot analysis under various conditions. […] Each bar represents mean±SEM. […] The images were acquired using a confocal microscope (Olympus, MPE). FIG. 2G-1 and FIG. 2G-2 display the measurement of angles between collagen fibers and the cell membrane, conducted using Image J. At least five different images from each condition were analyzed. Each bar represents mean±SEM. […]
(§1) Cell lysates were harvested in RIPA buffer (150 mM NaCl, 1 mM EGTA, 50 mM Tris pH 7.4, 10% glycerol, 1% Triton X-100, 1% sodium deoxycholate, 0.1% SDS, and protease inhibitor cocktail) and collected from culture dish with cell scrapers. […] The protein expression levels were assessed by specific primary antibodies, including antibodies against phosphotyrosine (clone 4G10; Millipore), DDR2 (R&D), α-SMA (Sigma), Collagen 1a1 (Boster), E-cadherin (BD Biosciences), SGLT2 (Proteintech), NHE1 (Novus) and β-actin (Clone C4, Millipore), followed by incubating with secondary antibodies conjugated with HRP and detected by ECL kit (Thermo Scientific). […]

[2] = test system: human cardiac fibroblast (HCF); assay: TGF-β1-induced activation of human cardiac fibroblasts (Western blot); type: cell-based; conditions: 10 μM co-treatment, 24 hours
Procedure: Cells were co-treated with various compounds (10 μM) and TGF-β1 for 24 hours. Following this, cell lysates were harvested, and the protein expression was assessed by Western blot analysis. FIG. 3D depicts the examination of TGF-β1-induced fibronectin deposition and α-SMA expression in HCF treated with 10 μM of DMSO, BTP2, WRG-28, or Av through immunofluorescence staining. The images were captured using a confocal microscope, the Olympus FV-1000. FIG. 3E, FIG. 3F, and FIG. 3G illustrate the assessment of CRAC channel activity in HCF, MRC5, and rat HSC-T6. These cells were pretreated with 10 μM of BTP2, WRG-28, or Av for 45 min. The evaluation included measuring the second peak of each calcium wave and the rate of entry. […]
as §1

[3] = test system: UUO-induced renal fibrosis; assay: Unilateral ureteral obstruction (UUO) renal fibrosis model; type: in vivo, mouse; conditions: for UUO-induced downregulation of E-cadherin (kidney, Western blot) / UUO-induced upregulation of integrin β1, DDR2, collagen 1a1, and α-SMA (kidney, Western blot) / area positively stained with fibrillar collagen (Sirius red) / histology: UUO-induced tubular dilation and interstitial expansion (H&E): 5 mg/kg/day for 7 days; for apoptotic tubular cells (TUNEL): 5 mg/kg/day for 7 days during ureter obstruction
Procedure: Surgical ligation was performed on the left ureter of 7-to-8-week-old male mice using a nylon surgical suture. Subsequently, the mice were treated with 5 mg/kg/day of DMSO (control), BTP2, WRG-28, or Av for 7 days. […] FIG. 5B illustrates the evaluation of fibrillar collagen expression levels via Sirius red staining. FIG. 5C presents the measurement of the Sirius red-positive area using Image J. FIG. 5D, FIG. 5E, FIG. 5F, FIG. 5G, and FIG. 5H depict the protein levels of integrin β1, DDR2, Collagen 1a1, α-SMA, and E-cadherin in kidney samples from mice treated with 5 mg/kg/day of BTP2 (FIG. 5D), WRG-28 (FIG. 5F), or Av (FIG. 5H), which were assessed by Western blot analysis. […] FIG. 5K illustrates the evaluation of apoptotic cells from 5-10 pictures in each condition.
Cell lysates were harvested in RIPA buffer (150 mM NaCl, 1 mM EGTA, 50 mM Tris pH 7.4, 10% glycerol, 1% Triton X-100, 1% sodium deoxycholate, 0.1% SDS, and protease inhibitor cocktail) and collected from culture dish with cell scrapers. For tissue sample preparation, half of the kidney tissues were cut into ˜1 mm3 and then put into 500 μl RIPA buffer in 2 ml tubes. Mechanical homogenizers by agitating beads at high speeds for 30 seconds were used for tissue protein extraction. Protein samples in supernatants were collected after centrifuging the tubes at 10000 g for 10 min at 4° C. 20-30 μg protein samples were resolved by 7.5% or 10% SDS-PAGE. The protein expression levels were assessed by specific primary antibodies, including antibodies against phosphotyrosine (clone 4G10; Millipore), DDR2 (R&D), α-SMA (Sigma), Collagen 1a1 (Boster), E-cadherin (BD Biosciences), SGLT2 (Proteintech), NHE1 (Novus) and β-actin (Clone C4, Millipore), followed by incubating with secondary antibodies conjugated with HRP and detected by ECL kit (Thermo Scientific).
Procedures involving animal subjects have been approved by the Institutional Animal Care and Use Committee (IACUC) at the National Laboratory Animal Center. 7-8 weeks old male C57BL/6 mice were obtained from the animal center. Unilateral ureteral obstruction (UUO) was performed by ligating the left ureter and mice were treated with 5 mg/kg/day DMSO, BTP2, WRG-28, or Av for 7 days after ligation. After 7 days, mice were sacrificed and the kidneys were removed and used for analysis. One-quarter of the kidney was fixed by 4% paraformaldehyde and embedded in paraffin or one-quarter of the kidney was embedded in the Tissue-Tek OCT compound. Half of the kidneys are used for protein analysis. In the reversible unilateral ureteral obstruction (RUUO) experiment, the ligated-left ureter was re-connected to the bladder after UUO surgery for 7 days. The compounds, WRG-28 and Av, were injected during ligation (7*/15d) or after ligation was released (7/15*d). To assess the kidney function, the right ureter was ligated the day before leaving mice in the metabolic cage. The urine and blood were collected for blood urea nitrogen (BUN) and creatinine (CRE) test.
Deparaffinize and rehydrate tissue slides were immersed in filtered Harris Hematoxylin for 10 seconds. After extensively washing in tap water, samples were immersed in Alcoholic-Eosin for 2 minutes. The tissue was then dehydrated and mounted by resinous medium and glass coverslips.
Deparaffinize and rehydrate tissue slides were stained with Picrosirius red for one hour, followed by an extensive wash with acidified water. After dehydration through 3 runs of change of 95% ethanol, 2 runs of change of 100% ethanol, and 3 runs of change of xylene, tissue slides were mounted by resinous mounting medium and glass coverslips. […]
The TUNEL assay kit was purchased from Abcam (ab206386). The procedure was carried out following the manufactory's instructions. […]

Compound	TGF-β1-induced upregulation of collagen 1a1 and α-SMA in pericyte [1]	upregulation of α-SMA induced by TGF-β1 [2]	UUO-induced downregulation of E-cadherin (kidney, Western blot) [3]	UUO-induced upregulation of integrin β1, DDR2, collagen 1a1, and α-SMA (kidney, Western blot) [3]	area positively stained with fibrillar collagen (Sirius red) [3]	histology: UUO-induced tubular dilation and interstitial expansion (H&E) [3]	apoptotic tubular cells (TUNEL) [3]
Cc1nnsc1C(=O)Nc1ccc(-n2nc(C(F)(F)F)cc2C(F)(F)F)cc1 [BTP2]	significantly suppressed	suppressed	reversing	suppressed	significantly reduced	appeared to mitigate the effects caused by UUO	notably reduced
CCNS(=O)(=O)c1ccc(COc2ccc3nc4ccc(=O)cc-4oc3c2)cc1 [WRG-28]	significantly suppressed	suppressed	reversing	suppressed	significantly reduced	appeared to mitigate the effects caused by UUO	notably reduced; also recorded: significantly reduced
